The target of one series is T1, human MCHR1 (Homo sapiens, UniProt Q99705).
T1 construct: expressed in transfected cells; host or cells: CHO dhfr- cells, clone #4
Description: MCH receptor 1 antagonistic activity, Ca2+ mobilization assay. The series is classed as cell-based. Particulars: CHO, test compound 0.1 μM; human MCHR1-expressing CHO cells (clone #4); ligand MCH(4-19) 2 nM; read-out: Inhibitory rate % (0.1 μM). A digest of the protocol:
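CHO dhfr− cells stably expressing human MCHR1 (clone #4) were used in a fluorometric Ca2+ mobilization assay. Test compounds were run at 0.1 μM, with antagonism expressed as percent inhibition.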

The test system of the next series is HepG2 cells. The series is described as follows: PLsis (phospholipidosis) inducing potential, NBD-PE uptake. The series is classed as cell-based. Particulars: 24 hr exposure, relative value to 10 μM Amiodarone, maximum value per unit concentration. How it is done:
Evaluation of PLsis Inducing Potential
DMEM medium, L-glutamine, penicillin-streptomycin, pyruvic acid, and N-(7-nitrobenz-2-oxa-1,3-diazol-4-yl)-1,2-hexadecanoyl-sn-glycero-3-phosphoethanolamine triethylammonium salt (NBD-PE) were purchased from Invitrogen Corporation. As bovine serum albumin (BSA), a product of Thermo Trace Ltd. (Melbourne, Australia) was used, and as Amiodarone, a product of ICN (Costa Mesa, Calif.) was used. A test compound was used in the form of a 10 mM DMSO solution.
FBS was added at a final concentration of 5 vol % to DMEM medium supplemented with L-glutamine, pyruvic acid and penicillin-streptomycin and subjected to the experiment. Culture was performed using 5% carbon dioxide gas-95% air as a gas phase in a CO2 incubator at 37° C. HepG2 cells were suspended in a culture medium at 50×10^4 cells/mL, plated in a 96 well plate at 50 μL/well and precultured for 24 hr. After preculture, the culture medium was removed, a culture medium containing 60 μM NBD-PE was added at 50 μL/well, and a culture medium containing 0.6 μM or 20 μM test compounds were each added at 50 μL/well to HepG2 cells, and the cells were cultured for 24 hr. As a positive control, Amiodarone was used at a final concentration of 10 μM.
After exposure to the test compound for 24 hr, the fluorescence intensity (Ex. 485 nm, Em. 538 nm) of NBD-PE uptaken by the cells was measured by a fluorometer. The measurement value with addition of 0 μM test compound solution was subtracted as a blank, a relative value to the measurement 5 value with addition of 10 μM Amiodarone was calculated, and the maximum value per unit concentration of the test compound was obtained as a phospholipidosis (PLsis) inducing potential.

The subject of series [1] is male diet-induced obese F344/Jcl rats. The series is described as follows: Anorectic effect in male diet-induced obese F344/Jcl rats. It counts as in vivo, rat. Particulars: Rattus norvegicus, po, 48 h, 5 mg/mL suspension at 2 mL/kg, two administrations, food intake for 2 days vs control group, read-out: Food intake suppression rate (%). On the procedure:
Evaluation of Anorectic Effect Using Male Diet-Induced Obese F344/Jcl Rats
Male diet-induced obese F344/Jcl rats (44-50 weeks old) fed with a high-fat diet (D12451: Research Diets) from 5 weeks old were used. From before the start of experiment, the rats were singly housed, given a powder high-fat diet (D12451M: Research Diets), and habituated to oral administration with tap water. The food intake from the evening of the day before the start of experiment to the next morning was measured, and the rats were grouped based on both the food intake and the body weight of the previous day. In the evening of the day of the start of experiment and the next day, 0.5% methylcellulose solution was orally administered to the control group, and 0.5% methylcellulose suspension (5 mg/mL) of the test compound was orally administered to the compound administration group at 2 mL/kg (6 per group for both control group and compound administration group). The food intake for 2 days from the initial administration was measured. The food intake inhibition rate of each compound administration group to the control group was calculated.

Series [2] addresses T2, human MCH receptor 1 (MCHR1) (Homo sapiens, UniProt Q99705).
T2 construct: expressed in transfected cells; host or cells: CHO cell clone 57 (membrane fraction)
Description: human MCH receptor 1 (MCHR1) competitive binding assay with [125I]-MCH(4-19). Particulars: test compound 0.1 μM, human MCHR1-expressing CHO cell membrane fraction, read-out: Binding inhibition rate % (0.1 μM). The procedure, abridged: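 Percent binding inhibition by 0.1 μM test compound, corrected for nonspecific binding defined with unlabeled MCH(1-19), is read by scintillation after filtration onto PEI-treated GF/C filters. The reaction runs 1 hr at room temperature with [125I]-MCH(4-19) and human MCHR1-CHO cell membranes in Tris-HCl pH 7.5 buffer containing EDTA and protease inhibitors.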

The structures appear in SMILES notation.

T2 sequence (Q99705 whole entry): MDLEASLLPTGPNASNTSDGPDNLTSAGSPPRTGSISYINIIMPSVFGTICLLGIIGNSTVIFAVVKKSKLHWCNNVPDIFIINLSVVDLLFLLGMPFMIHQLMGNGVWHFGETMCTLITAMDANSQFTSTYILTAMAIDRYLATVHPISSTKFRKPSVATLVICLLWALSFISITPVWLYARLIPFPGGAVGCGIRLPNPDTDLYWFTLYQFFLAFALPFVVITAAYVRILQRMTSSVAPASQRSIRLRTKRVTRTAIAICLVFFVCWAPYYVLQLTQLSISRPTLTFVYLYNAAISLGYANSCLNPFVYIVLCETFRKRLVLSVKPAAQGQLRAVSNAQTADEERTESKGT
T1 sequence (Q99705 whole entry): as above

On to `Cc1c(C2CC2)nc2ccc(-n3ccc(OCc4ccc(F)cc4)cc3=O)cn12` [Example 1, 1-(2-Cyclopropyl-3-methylimidazo[1,2-a]pyridin-6-yl)-4-((4-fluorobenzyl)oxy)pyridin-2(1H)-one], for which the inhibition at 0.1 µM at human MCHR1 amounted to 98%; in series [2] it was 91%. Moreover, the PLsis inducing potential in the series with HepG2 cells was found to be 2.5. In addition, the inhibition in vivo at 5000 µg/mL, 10 mg/kg in series [1] came to 19.5%.
The like results for `Cc1c(C2CC2)nc2ccc(-n3ccc(OCc4ccc(Cl)cc4)cc3=O)cn12` [Example 3, 4-((4-Chlorobenzyl)oxy)-1-(2-cyclopropyl-3-methylimidazo[1,2-a]pyridin-6-yl)pyridin-2(1H)-one] were, in that order, 99%, 88%, 2.4 and 29.6%.
For `Cc1c(C2CC2)nc2ccc(-n3ccc(OCc4ccccc4)cc3=O)cn12` [Example 11, 4-(Benzyloxy)-1-(2-cyclopropyl-3-methylimidazo[1,2-a]pyridin-6-yl)pyridin-2(1H)-one] the same measures were 101%, 81%, 2.0 and 21.8%.
As to `Cn1c(C2CC2)nc2ccc(-n3ccc(OCc4ccc(Cl)cn4)cc3=O)cc21` [Example 112, 4-((5-Chloropyridin-2-yl)methoxy)-1-(2-cyclopropyl-1-methyl-1H-benzimidazol-6-yl)pyridin-2(1H)-one], the inhibition at 0.1 µM at human MCHR1 is 48%; in series [2], 70%. This compound also came in with a PLsis inducing potential in the series on HepG2 cells of 1.6. Moreover, the inhibition in vivo at 5000 µg/mL, 10 mg/kg in series [1] was 25.5%.
For the compound `Cn1c(C2CC2)nc2ccc(-n3ccc(OCc4ccc(F)c(F)c4)cc3=O)cc21` [Example 115, 1-(2-Cyclopropyl-1-methyl-1H-benzimidazol-6-yl)-4-((3,4-difluorobenzyl)oxy)pyridin-2(1H)-one], the PLsis inducing potential in the series on HepG2 cells was 1.8. Also, in series [1], the inhibition in vivo at 5000 µg/mL, 10 mg/kg amounted to 32%. Also, in series [2], the inhibition at 0.1 µM stood at 82%.
Regarding `Cn1c(C2CC2)nc2ccc(-n3ccc(OCc4ccc(Cl)s4)cc3=O)cc21` [Example 121, 4-((5-Chloro-2-thienyl)methoxy)-1-(2-cyclopropyl-1-methyl-1H-benzimidazol-6-yl)pyridin-2(1H)-one], the figures for the inhibition at 0.1 µM (at human MCHR1; in series [2]) were 96% and 95%, respectively. In the series with HepG2 cells, the PLsis inducing potential was found to be 1.7. In addition, in series [1], the inhibition in vivo at 5000 µg/mL, 10 mg/kg came to 36.5%.
Turning to `Cn1c(C2CC2)nc2ccc(-n3ccc(OCc4csc(Cl)c4)cc3=O)cc21` [Example 143, 4-((5-Chloro-3-thienyl)methoxy)-1-(2-cyclopropyl-1-methyl-1H-benzimidazol-6-yl)pyridin-2(1H)-one], the PLsis inducing potential in the series on HepG2 cells is given as 1.6. In series [1], the inhibition in vivo at 5000 µg/mL, 10 mg/kg amounted to 39.4%. The inhibition at 0.1 µM in series [2] worked out at 91%.
Turning to `Cc1c(C2CC2)nc2ccc(-n3ccc(OCc4ccc(F)s4)cc3=O)cn12` [Example 156, 1-(2-Cyclopropyl-3-methylimidazo[1,2-a]pyridin-6-yl)-4-((5-fluorothiophen-2-yl)methoxy)pyridin-2(1H)-one], the inhibition at 0.1 µM at human MCHR1 worked out at 90%; in series [2], 48%. This compound had a PLsis inducing potential in the series with HepG2 cells of 2.0.
The like results for `CCc1nc2ccc(-n3ccc(OCc4csc(Cl)c4)cc3=O)cc2n1C` [Example 226, 4-((5-Chloro-3-thienyl)methoxy)-1-(2-ethyl-1-methyl-1H-benzimidazol-6-yl)pyridin-2(1H)-one] were, in that order, 106%, 89% and 2.1.

(Values after patent US9365540B2, “Benzimidazole derivatives as MCH receptor antagonists” (Takeda Pharmaceutical Company Limited, priority 2012, dated 2016).)
